Laboratory results taken from patent US8084020B2, “Use of anti-CD1 antibodies for the modulation of immune responses” (Beth Israel Deaconess Medical Center, priority 2002, dated 2011).

Experiments:
antigen presenting cells = assay: Induction of IL-12 production by antigen presenting cells / monocytes in vitro; assay type: cell-based
From the text: (§1) PBMC were obtained from healthy adult volunteers of both sexes on Ficoll Hypaque density gradients and cultured in complete medium consisting of RPMI 1640 and 10% FBS. THP-1 is a human monocytic leukaemia cell line. Compared to other human myeloid cell lines, such as HL-60 and U937, THP-1 cells express CD1d on their surfaces. Because of this characteristic, the THP-1 cell line provides a valuable model for studying the mechanism involved in CD1d crosslinking by measuring the IL-12 and phospho kinases in the cell. THP-1 cells was cultured in complete medium consisting of RPMI 1640 and 10% FBS.
(§2) For the activation of these target cells, an anti-CD1 antibody was bound to a plate and then incubated with the cells. In particular, […] were coated with 10 μg/ml protein G overnight at 4° C. Wells were washed with PBS and blocked with BSA at room temperature for four hours. Antibody (10 μg/ml) was added to each well for four hours at room temperature. The wells were washed again to remove the unbound antibodies, and 1.5×10^5 to 2×10^5 cells were added to each well in RPMI 1640 culture media.
(§3) To measure the increase induction of IL-12 production by an anti-CD1 antibody, the concentrations of P40 and P70 forms of IL-12 in cultured supernatants were measured with a standard sandwich ELISA technique using combinations of monoclonal antibodies to different epitopes of each cytokine (FIGS. 4-22).

adhered PBMC = assay: IL-1α release from adhered PBMC; assay type: cell-based, human
From the text: as §1, §2

THP-1 cells = assay: IL-12 p40 release from THP-1 cells (ELISA); assay type: cell-based, human; conditions: FIG. 14; with and without PMA (0.1 ng/ml); 2% serum media; IFNγ (20 ng/ml); two days
From the text: as §1
as §2, with “The wells were washed again to remove the unbound antibodies, and 1.5×10^5 to 2×10^5 cells were added to each well in RPMI 1640 culture media.” left out
as §3

IFNγ: cytokine
effect of cytokine on anti-CD1 antibody enhanced production of IL-12 (antigen presenting cells): increased the ability of anti-CD1 antibodies to enhance production of IL-12

lipopolysaccharide [LPS]
induction of IL-1 relative to 51.1 anti-CD1 antibody (adhered PBMC): more potent inducer of IL-1 | levels of IL-12 stimulated relative to 51.1 anti-CD1 antibody (antigen presenting cells): comparable or lower levels of IL-12

CCCCCCCCCCCCCC(=O)O[C@@H]1[C@@H](C)[C@@]2(O)[C@@H](C=C(CO)C[C@]3(O)C(=O)C(C)=C[C@@H]23)[C@@H]2C(C)(C)[C@]12OC(C)=O [PMA]
effect of PMA on IL-12 p40 released from THP-1 cells (THP-1 cells): no significant differences

B1: IL-4: cytokine (protein, UniProt P05112 25-153, looked up)
Interleukin-4: HKCDITLQEIIKTLNSLTEQKTLCTELTVTDIFAASKNTTEKETFCRAATVLRQFYSHHEKDTRCLGATAQQFHRHKQLIRFLKRLDRNLWGLAGLNSCPVKEANQSTLENFLERLKTIMREKYSKCSS
effect of cytokine on anti-CD1 antibody enhanced production of IL-12 (antigen presenting cells): increased the ability of anti-CD1 antibodies to enhance production of IL-12
